Test results taken from patent US9815815B2, “Non-selective kinase inhibitors” (GILEAD SCIENCES, INC., priority 2013, dated 2017).
Marks after values point to notes of the source that are not given here.

Tests used:
[1] = tested on: PDGFAA stimulated phosphorylation of ERK1 and ERK2; assay: PDGFAA stimulated phosphorylation of ERK1 and ERK2 in human fetal lung fibroblasts; format: cell-based; settings: 1 uM
[2] = Two-chamber plethysmography in the rat MCT+PN model; format: in vivo; parameters: SRaw: unit not given beside the values
Description: Plethysmography. Plethysmography was performed with an EMKA dual chamber plethysmograph and IOX software. Parameters measured included breathing frequency, tidal volume, minute ventilation, peak inspiratory and expiratory flow, and airway resistance (SRaw). Animals were acclimatized to the plethysmograph for three days prior to first data acquisition. Measurements were made prior to the first dose of drug and at the end of the study.

rat MCT+PN model = assay: Telemetry study of PA pressure in the rat MCT+PN model; format: in vivo; settings: by inhalation
Description: Efficacy study in the rat MCT+PN model. Pneumonectomy and implantation of a TRM53P telemetry monitor in the pulmonary artery (Telemetry Research, New Zealand and ADlnstruments, Colorado) was carried out in rats. Two weeks after MCT, PK10453 (Structure 2) was administered three times daily for 1 week. […] Sampling of PA pressure was performed 5 min before each morning dose in ambulatory animals in room air (estimated atmospheric pressure 716 mm Hg based on elevation of animal facility). […] Telemetry data was obtained for 10 min daily before each morning dose for this protocol.

[3] = Systemic blood pressure study in ambulatory MCT treated rats; format: in vivo, rat; settings: inhalation
Description: Systemic blood pressure study. The effect of PK10453 (Structure 2) on systemic BP was studied in ambulatory MCT treated rats with DSI PAC40 transmitters implanted in the descending aorta. […] Blood pressure was recorded before each morning dose.

ERK1/2 = assay: NanoPro immunoassay pERK1/2 in lung homogenates, MCT+PN model; format: in vivo, rat; settings: D4 and D8 groups compared to vehicle
Excerpt: Histology and morphometric analysis. At the end of the study, the heart and lungs were removed from ventilated animals under general anesthesia. Heparinized saline was infused under pressure through the main pulmonary artery. The right upper lobe was immediately tied off and placed in liquid nitrogen for Western blot and NanoPro 100 ™ assay analysis. The heart was removed, and the RV free wall, interventricular septum and LV free wall dissected and weighed. Buffered formalin (10%) was infused under pressure both through the pulmonary artery and the trachea. Morphometric analysis was performed on H&E stained formalin fixed tissue sectioned at 8 μm. The media area and lumen area of pulmonary arterioles were measured with Image J software by a technician blinded to treatment group. Measurements were made on 20 pulmonary arterioles per section. The ratio of the lumen area to the total media area was determined This ratio normalizes the variation in total pulmonary arteriole area. […]
NanoPro Immunoassay™. Relative differences in phosphorylated ERK1/2 and STAT isoforms were measured with a NanoPro100™ immunoassay system (Protein Simple/Cell Biosciences, CA). […]

rat MCT model = settings: 8 min inhalation 3x/day, two weeks
Description: At the end of the study RVSP pressure was measured; lung and heart fixed in formalin. For measurement of RVSP animals were sedated with isoflurane, intubated via a tracheostomy, and ventilated with a TOPOVENT pressure regulated ventilator (peak inspiratory pressure 18 cm H2O, PEEP 5 cm). After sternotomy, a Scisense high fidelity catheter inserted via the RV apex.
Histology and morphometric analysis. At the end of the study, the heart and lungs were removed from ventilated animals under general anesthesia. Heparinized saline was infused under pressure through the main pulmonary artery. […] The heart was removed, and the RV free wall, interventricular septum and LV free wall dissected and weighed. Buffered formalin (10%) was infused under pressure both through the pulmonary artery and the trachea. Morphometric analysis was performed on H&E stained formalin fixed tissue sectioned at 8 μm. The media area and lumen area of pulmonary arterioles were measured with Image J software by a technician blinded to treatment group. Measurements were made on 20 pulmonary arterioles per section. The ratio of the lumen area to the total media area was determined This ratio normalizes the variation in total pulmonary arteriole area. […] Briefly, pre-capillary arterioles were assigned grade 0 for no evidence of neointimal lesions, grade 1 for less than 50% luminal occlusion, and grade 2 for greater than 50% occlusion.

[4] = tested on: PDGFBB stimulated phosphorylation of ERK1 and ERK2; assay: PDGFBB stimulated phosphorylation of ERK1 and ERK2 in human fetal lung fibroblasts; format: cell-based
[5] = tested on: PDGFAA stimulated AKT phosphorylation; assay: In cell Western (ICW), PDGFAA stimulated AKT phosphorylation in human fetal lung fibroblasts; format: cell-based; settings: comparison in words
Description: In cell Western (ICW). […] HLFs were maintained in subculture at no more than 6 passages in DMEM with 5% FBS and 4 mM Glutamax at 37° C., 5% CO2. HLFs were plated and grown to 70-80% confluence in 96 well plates then serum-starved for 48 hours. […] After washing, the signal was quantified using an Odyssey Infrared Imaging System (LI-COR). Phosphoprotein signal (800 nm) was normalized to total protein signal (700 nm) acquired from each well and experimental duplicates on same plate were averaged and reported.

For COc1cc(-c2cncc(N[C@@H](C)c3cccc(NC(=O)c4cncc(C)c4)c3)n2)ccc1O [PK10453, (S)-N-(3-(1-((6-(4-hydroxy-3-methoxyphenyl)pyrazin-2yl)amino)ethyl)phenyl)-5-methylnicotinamide], the “decreasing PDGF AA stimulated ppERK1 and ppERK2 formation” value [1] was “equally effective”, the MV ([2]; day 1, D4, mean) was 223.24 mL/min and the PEF ([2]; day 1, D4, mean) was 11.04. For the same molecule, the PIF ([2]; day 1, D4, mean) was 9.82, the SRaw ([2]; day 1, D4, mean) was 39.73 and the TV ([2]; day 1, D4, mean) was 1.00 mL. For the same molecule, the f ([2]; day 1, D4, mean) was 224.68 breaths per minute, the MV ([2]; day 1, D8, mean) was 174.68 mL/min and the PEF ([2]; day 1, D8, mean) was 9.43. It also gave a PIF ([2]; day 1, D8, mean) of 8.54, an SRaw ([2]; day 1, D8, mean) of 36.01 and a TV ([2]; day 1, D8, mean) of 0.74 mL. For the same molecule, the f ([2]; day 1, D8, mean) was 259.13 breaths per minute, the MV ([2]; day 15, D4, mean) was 176.12§ and the PEF ([2]; day 15, D4, mean) was 9.33*. For the same molecule, the PIF ([2]; day 15, D4, mean) was 7.82*, the SRaw ([2]; day 15, D4, mean) was 33.09 and the TV ([2]; day 15, D4, mean) was 0.85. For the same molecule, the f ([2]; day 15, D4, mean) was 217.12 breaths per minute, the MV ([2]; day 15, D8, mean) was 128.49 and the PEF ([2]; day 15, D8, mean) was 6.64. The PIF ([2]; day 15, D8, mean) was 6.06, the SRaw ([2]; day 15, D8, mean) was 49.26 and the TV ([2]; day 15, D8, mean) was 0.63. The f ([2]; day 15, D8, mean) was 232.11 breaths per minute, the “effect on lung function, in words” value ([2]; inhaled, 2-wk course) was “did not adversely affect lung function” and the “efficacy in the MCT+PN model, in words” value (rat MCT+PN model) was “prevented the progression of PAH”. The “effect on systemic BP, in words” value [3] was “did not have an adverse effect”, the “pERK1/ERK1 in lung homogenates” value (ERK1/2) was “significant reductions” and the “ppERK1/ERK1 in lung homogenates” value (ERK1/2) was “significant reductions”. The End systolic volume (rat MCT model) was 99.5 ± 10 µL, the “PDGFBB stimulated ppERK1 formation” value ([4]; 1 uM) was “effective” and the “decreasing PDGF BB stimulated ppERK1 and ppERK2, compared to imatinib” value ([4]; 1 uM and 10 uM) was “more effective”. For the same molecule, the “IC50 for PDGFAA stimulated phosphorylation of AKT, PK10453 vs imatinib” value [5] was “not significantly different”.
